Results taken from US11793824B2, “Administration of nicotinamide mononucleotide in the treatment of disease” (Washington University, priority 2013, dated 2023).
“Also recorded” adds a separate entry of the source.

Tests used:
Nampt = molecular target: T1, Nampt (Mus musculus, UniProt Q99KQ4); test: NAD+ levels in neurospheres treated with FK866 with or without NMN; type: cell-based
T1 construct: endogenous in cells; host or cells: primary neurospheres (NSPCs) from hippocampi of postnatal mice
Description: NAD+ levels were determined using an HPLC system (Shimadzu) with a Supelco LC-18-T column (15 cm×4.6 cm; Sigma), as described previously (Yoshino et al, 2011).
FK866 (Hasmann & Schemainda, 2003) (Sigma F8557), EX527 (Peck et al, 2010) (Cayman Chemical 10009798), and AGK2 (Outeiro et al, 2007) (Sigma A8231) were dissolved in DMSO and used to inhibit Nampt, Sirt1, and Sirt2 respectively.
Neurosphere cultures and culture media were prepared as described by Dasgupta & Gutmann, 2005 and Lu & Ramanan, 2012 with the following minor modifications. Briefly, postnatal hippocampi were dissected in HibernateA (Invitrogen, A12475-01) and trypsinized at 37° C. for 7 m. Cells were mechanically dissociated by pipetting and pelleted by centrifugation (1700 rpm, 7 min). Dissociation medium (0.1% sodium bicarbonate, 15 mM HEPES, 0.5% glucose in HBSS) was used to wash the cells before they were resuspended in growth medium. Growth medium consisted of DMEM:F12 (1:1, Invitrogen 11966-025 and 21700-075, respectively), B27 (Invitrogen, 17504-044), N2 (Invitrogen, 17502-048), Pen/Strep (Invitrogen), epidermal growth factor (EGF, 20 ng/ml, Sigma, E4127), fibroblast growth factor (FGF, 10 ng/mL, R&D Systems, 233-fb), and heparin (Sigma). Cultures were maintained at 37° C. with 5% CO2, and passaged twice before use in experiments. […]

661W cone PR cell line = test: 661W cone PR cell line: cell death and intracellular NAD under FK866 with or without NMN; type: cell-based, mouse
Source text: The present inventors assessed the physiological importance of NAMPT-mediated NAD biosynthesis in the retina by generating rod cell- and cone cell-specific NAMPT knockout mice. […] Both a and b wave ERG responses were completely depressed as characterized by a total lack of response to all stimuli. […] NMN administration is an effective intervention to treat/prevent retinal degeneration.
The inventors used a 661W cone PR cell line and treated the cells with the specific pharmacological NAMPT inhibitor FK866 (200 nM). […] Cell death progresses dramatically over the next 20 hours.

661W cone cells = test: 661W cone cells: oxygen consumption rate measurement assay; type: cell-based, mouse
Description: There was an abundance of degenerative vacuoles with ingested organelles including mitochondria in rod-CKO mice with no such structures identified in littermate wild type controls. At 3 weeks of age, subtle changes in inner segments could be identified in rod-CKO mice although they were not as dramatic as those seen by 4 weeks (FIG. 35). […] The inventors treated 661W cone cells with NAMPT inhibitor FK866 (200 nM). In the oxygen consumption rate measurement assay, multiple aspects of mitochondrial function were analyzed.

[1] = Tear production, modified Schirmer's test; type: in vivo, mouse
Description: A 12 month-long NMN administration study using wild-type mice under a regular chow-fed condition was conducted. NMN was administered through drinking water, and two doses of NMN, 100 and 300 mg/kg body weight/day, were tested. […] To assess beneficial and possible adverse effects of NMN, a variety of physiological parameters were periodically monitored, including body weight, body temperature, food and water intake, fed and fasted blood glucose levels, fed and fasted plasma lipid panels, and glucose and insulin tolerance, in NMN-administered and control mice. Blood chemistry, blood cell counts, urine strip test, and other physiological tests including physical activity test were also checked.
In this long-term NMN administration study (See Methods; Administration of NMN through Drinking Water and Determination of NMN Stability and Toxicity), tear production was assessed in control and NMN-administered mice with modified Schirmer's test. All values are presented as mean±SEM. **p<0.01.

T1 sequence (Q99KQ4 whole entry): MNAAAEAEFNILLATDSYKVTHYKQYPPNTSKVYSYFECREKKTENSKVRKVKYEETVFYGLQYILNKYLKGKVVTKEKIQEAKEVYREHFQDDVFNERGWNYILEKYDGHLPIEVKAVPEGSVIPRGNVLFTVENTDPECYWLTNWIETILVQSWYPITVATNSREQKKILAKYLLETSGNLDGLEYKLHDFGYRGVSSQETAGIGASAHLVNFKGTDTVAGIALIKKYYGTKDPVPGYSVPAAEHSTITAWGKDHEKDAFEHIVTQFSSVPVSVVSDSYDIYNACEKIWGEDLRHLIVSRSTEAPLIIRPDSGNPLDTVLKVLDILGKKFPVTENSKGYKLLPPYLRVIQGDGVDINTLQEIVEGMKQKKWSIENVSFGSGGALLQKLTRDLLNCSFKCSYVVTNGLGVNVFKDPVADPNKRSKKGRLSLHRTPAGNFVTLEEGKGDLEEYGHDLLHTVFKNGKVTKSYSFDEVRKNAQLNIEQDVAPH

Q: Which results are given for `O=C(/C=C/c1cccnc1)NCCCCC1CCN(C(=O)c2ccccc2)CC1` [FK866]?
A: NAD+ levels in neurospheres (Nampt; FK866 10 nM, 48 hours): 4 % of controls; intracellular NAD levels (661W cone PR cell line; FK866 200 nM): decrease in intracellular NAD levels; cell death of 661W cells (661W cone PR cell line; FK866 200 nM, after 4 hours of treatment): significant cell death; also recorded: apoptotic cell death; maximal respiration (661W cone cells; FK866 200 nM): significantly reduced

Q: For `NC(=O)c1ccc[n+]([C@@H]2O[C@H](COP(=O)([O-])O)[C@@H](O)[C@H]2O)c1` [NMN, nicotinamide mononucleotide], which “rescue of FK866-induced decrease of NAD+ levels” value (Nampt; concurrent NMN 100 μM with FK866 10 nM) is on record?
A: completely rescued

Q: And the “NAD levels under FK866” value (661W cone PR cell line; NMN 100 μM with FK866)?
A: restore NAD to normal levels

Q: What about the “rescue from FK866-mediated cell death” value (661W cone PR cell line; NMN 100 μM with FK866) of the same compound?
A: completely rescue; also recorded: successfully rescued

Q: What about the tear production ([1]; 300 mg/kg group) of the same compound?
A: comparable to the maximal tear production through the mouse lifespan

Q: And the tear production ([1]; 18 month-old mice, 100 and 300 mg/kg)?
A: increased tear production in a dose-dependent manner

Q: What about the “effects of FK866 on mitochondrial function” value (661W cone cells; NMN treatment with FK866) of the same compound?
A: completely reverse
